Laboratory results: PMC4303209, “A novel phosphatidylinositol 3-kinase (PI3K) inhibitor directs a potent FOXO-dependent, p53-independent cell cycle arrest phenotype characterized by the differential induction of a subset of FOXO-regulated genes” (Breast Cancer Research : BCR, 2014)

System: MCF-7 breast cancer cells
Assay: Microarray gene expression analysis (Agilent whole human genome 4 x 44K; compound vs DMSO, LIMMA log2 fold change)
Type: cell-based

Cn1ncc2c(N3CCOCC3)nc(-c3cccc(O)c3)nc21 [ETP-45658]
PRNP log2FC: 0.370
log2FC: 0.370
AARS log2FC (Apoptosis genes, Gene 16): -0.198
ABL1 log2FC (Apoptosis genes, Gene 25): -0.156
ABR log2FC (Apoptosis genes, Gene 29): -0.380
ACTN4 log2FC (Apoptosis genes, Gene 81): -0.260
ACTN1 log2FC (Apoptosis genes, Gene 87): -0.609
ACTN2 log2FC (Apoptosis genes, Gene 88): 0.099
ACTN3 log2FC (Apoptosis genes, Gene 89): -0.693
ACVR1 log2FC (Apoptosis genes, Gene 90): 0.534
ACVR1B log2FC (Apoptosis genes, Gene 91): -0.563
ADA log2FC (Apoptosis genes, Gene 100): -0.213
ADAM8 log2FC (Apoptosis genes, Gene 101): -0.364
ADAR log2FC (Apoptosis genes, Gene 103): -0.197
ADCYAP1 log2FC (Apoptosis genes, Gene 116): 0.068
ADD1 log2FC (Apoptosis genes, Gene 118): -0.295
ADM log2FC (Apoptosis genes, Gene 133): -0.856
ADORA1 log2FC (Apoptosis genes, Gene 134): -2.012
ADORA2A log2FC (Apoptosis genes, Gene 135): -0.309
ADRB1 log2FC (Apoptosis genes, Gene 153): -0.090
AES log2FC (Apoptosis genes, Gene 166): -0.293
AGT log2FC (Apoptosis genes, Gene 183): -0.104
AHR log2FC (Apoptosis genes, Gene 196): 0.995
AKT1 log2FC (Apoptosis genes, Gene 207): -0.608
AKT2 log2FC (Apoptosis genes, Gene 208): -0.554
ALDH1A3 log2FC (Apoptosis genes, Gene 220): 0.149
ALDOC log2FC (Apoptosis genes, Gene 230): -0.120
ALK log2FC (Apoptosis genes, Gene 238): -0.050
ALOX15B log2FC (Apoptosis genes, Gene 247): -0.102
ANGPT1 log2FC (Apoptosis genes, Gene 284): -0.676
SLC25A4 log2FC (Apoptosis genes, Gene 291): -0.331
SLC25A5 log2FC (Apoptosis genes, Gene 292): 0.173
ANXA1 log2FC (Apoptosis genes, Gene 301): 0.991
ANXA4 log2FC (Apoptosis genes, Gene 307): 0.463
ANXA5 log2FC (Apoptosis genes, Gene 308): 0.266
APAF1 log2FC (Apoptosis genes, Gene 317): 0.550
NUDT2 log2FC (Apoptosis genes, Gene 318): 0.291
APBB2 log2FC (Apoptosis genes, Gene 323): -0.357
APC log2FC (Apoptosis genes, Gene 324): 0.117
BIRC3 log2FC (Apoptosis genes, Gene 330): -0.843
BIRC5 log2FC (Apoptosis genes, Gene 332): 0.154
APLP1 log2FC (Apoptosis genes, Gene 333): -0.281
APOE log2FC (Apoptosis genes, Gene 348): -0.224
APP log2FC (Apoptosis genes, Gene 351): 0.379
FASLG log2FC (Apoptosis genes, Gene 356): -0.198
AQP2 log2FC (Apoptosis genes, Gene 359): -0.102
AR log2FC (Apoptosis genes, Gene 367): 0.203
ARAF log2FC (Apoptosis genes, Gene 369): -0.542
ARF6 log2FC (Apoptosis genes, Gene 382): -0.682
RHOB log2FC (Apoptosis genes, Gene 388): -0.133
ARHGAP4 log2FC (Apoptosis genes, Gene 393): -0.218
ARHGDIA log2FC (Apoptosis genes, Gene 396): -1.118
ARRB2 log2FC (Apoptosis genes, Gene 409): 0.237
ASCL1 log2FC (Apoptosis genes, Gene 429): -0.107
ASNS log2FC (Apoptosis genes, Gene 440): -0.404
ATF4 log2FC (Apoptosis genes, Gene 468): 0.324
ATM log2FC (Apoptosis genes, Gene 472): 0.117
ATP2A1 log2FC (Apoptosis genes, Gene 487): 0.239
AVP log2FC (Apoptosis genes, Gene 551): -0.579
AXL log2FC (Apoptosis genes, Gene 558): -0.230
AZU1 log2FC (Apoptosis genes, Gene 566): -0.123
BAD log2FC (Apoptosis genes, Gene 572): 0.276
BAG1 log2FC (Apoptosis genes, Gene 573): 1.170
BAK1 log2FC (Apoptosis genes, Gene 578): -0.356
BARD1 log2FC (Apoptosis genes, Gene 580): 0.487
BAX log2FC (Apoptosis genes, Gene 581): -0.255
BCL2 log2FC (Apoptosis genes, Gene 596): -0.310
BCL2A1 log2FC (Apoptosis genes, Gene 597): -0.192
BCL2L1 log2FC (Apoptosis genes, Gene 598): -0.991
BCL2L2 log2FC (Apoptosis genes, Gene 599): 0.428
BCL3 log2FC (Apoptosis genes, Gene 602): -0.569
BCL6 log2FC (Apoptosis genes, Gene 604): 0.771
BDNF log2FC (Apoptosis genes, Gene 627): -0.132
BID log2FC (Apoptosis genes, Gene 637): -0.095
BIK log2FC (Apoptosis genes, Gene 638): -0.815
BLM log2FC (Apoptosis genes, Gene 641): 0.293
BMP4 log2FC (Apoptosis genes, Gene 652): 0.407
BMP7 log2FC (Apoptosis genes, Gene 655): -0.344
BMPR1B log2FC (Apoptosis genes, Gene 658): -0.091
BMX log2FC (Apoptosis genes, Gene 660): 0.114
BNIP1 log2FC (Apoptosis genes, Gene 662): 0.672
BNIP2 log2FC (Apoptosis genes, Gene 663): 0.527
BNIP3 log2FC (Apoptosis genes, Gene 664): 0.774
BNIP3L log2FC (Apoptosis genes, Gene 665): 1.085
FOXL2 log2FC (Apoptosis genes, Gene 668): -0.812
BRCA1 log2FC (Apoptosis genes, Gene 672): 0.792
BRAF log2FC (Apoptosis genes, Gene 673): -0.105
BRCA2 log2FC (Apoptosis genes, Gene 675): 0.092
BTC log2FC (Apoptosis genes, Gene 685): 0.205
BTG1 log2FC (Apoptosis genes, Gene 694): 1.142
BUB1 log2FC (Apoptosis genes, Gene 699): 0.803
BUB1B log2FC (Apoptosis genes, Gene 701): 0.344
TSPO log2FC (Apoptosis genes, Gene 706): -0.089
C5AR1 log2FC (Apoptosis genes, Gene 728): 0.064
CACNA1A log2FC (Apoptosis genes, Gene 773): -0.187
CALR log2FC (Apoptosis genes, Gene 811): -0.081
CAMK2B log2FC (Apoptosis genes, Gene 816): -0.123
CAST log2FC (Apoptosis genes, Gene 831): 0.572
CASP1 log2FC (Apoptosis genes, Gene 834): 0.048
CASP2 log2FC (Apoptosis genes, Gene 835): -0.918
CASP3 log2FC (Apoptosis genes, Gene 836): 0.546
CASP4 log2FC (Apoptosis genes, Gene 837): 0.181
CASP5 log2FC (Apoptosis genes, Gene 838): -0.128
CASP6 log2FC (Apoptosis genes, Gene 839): 0.574
CASP7 log2FC (Apoptosis genes, Gene 840): -0.211
CASP8 log2FC (Apoptosis genes, Gene 841): 0.613
CASP9 log2FC (Apoptosis genes, Gene 842): 0.372
CASR log2FC (Apoptosis genes, Gene 846): 0.039
CAT log2FC (Apoptosis genes, Gene 847): 0.577
CAV1 log2FC (Apoptosis genes, Gene 857): 0.205
RUNX3 log2FC (Apoptosis genes, Gene 864): -0.494
CBL log2FC (Apoptosis genes, Gene 867): 0.301
CBS log2FC (Apoptosis genes, Gene 875): -0.275
KRIT1 log2FC (Apoptosis genes, Gene 889): 0.668
CCNG1 log2FC (Apoptosis genes, Gene 900): 0.908
CD2 log2FC (Apoptosis genes, Gene 914): -0.352
CD3E log2FC (Apoptosis genes, Gene 916): -0.399
CD3G log2FC (Apoptosis genes, Gene 917): -0.295
CD5 log2FC (Apoptosis genes, Gene 921): -0.055
CD5L log2FC (Apoptosis genes, Gene 922): -0.110
CD14 log2FC (Apoptosis genes, Gene 929): -0.514
CD28 log2FC (Apoptosis genes, Gene 940): 0.087
CD40 log2FC (Apoptosis genes, Gene 958): -0.420
CD44 log2FC (Apoptosis genes, Gene 960): -0.380
CD59 log2FC (Apoptosis genes, Gene 966): 0.286
CD74 log2FC (Apoptosis genes, Gene 972): -0.135
CDC34 log2FC (Apoptosis genes, Gene 997): 0.349
CDC42 log2FC (Apoptosis genes, Gene 998): 0.143
CDK4 log2FC (Apoptosis genes, Gene 1019): 0.113
CDKN1A log2FC (Apoptosis genes, Gene 1026): -1.401
CDKN1B log2FC (Apoptosis genes, Gene 1027): 1.129
CDKN2A log2FC (Apoptosis genes, Gene 1029): 0.240
CDKN2D log2FC (Apoptosis genes, Gene 1032): 0.891
CEBPB log2FC (Apoptosis genes, Gene 1051): -0.358
CFL1 log2FC (Apoptosis genes, Gene 1072): -0.261
CTSC log2FC (Apoptosis genes, Gene 1075): -0.466
CGB log2FC (Apoptosis genes, Gene 1082): -0.136
CLU log2FC (Apoptosis genes, Gene 1191): -0.261
CLN3 log2FC (Apoptosis genes, Gene 1201): -0.330
CCR7 log2FC (Apoptosis genes, Gene 1236): 0.098
PLK3 log2FC (Apoptosis genes, Gene 1263): -1.808
CNR1 log2FC (Apoptosis genes, Gene 1268): 0.800
ATF2 log2FC (Apoptosis genes, Gene 1386): 0.857
CRH log2FC (Apoptosis genes, Gene 1392): 0.120
CRIP1 log2FC (Apoptosis genes, Gene 1396): 0.282
CRYAA log2FC (Apoptosis genes, Gene 1409): -0.057
CRYAB log2FC (Apoptosis genes, Gene 1410): -0.139
MAPK14 log2FC (Apoptosis genes, Gene 1432): -0.291
CSE1L log2FC (Apoptosis genes, Gene 1434): 0.841
CSF2 log2FC (Apoptosis genes, Gene 1437): -0.666
CSNK2A1 log2FC (Apoptosis genes, Gene 1457): -0.545
CSNK2A2 log2FC (Apoptosis genes, Gene 1459): 0.183
CSTB log2FC (Apoptosis genes, Gene 1476): 0.083
NKX2-5 log2FC (Apoptosis genes, Gene 1482): -0.753
CTGF log2FC (Apoptosis genes, Gene 1490): -0.597
CTH log2FC (Apoptosis genes, Gene 1491): 0.708
